Source: article PMC6792352, “Limited Chemical Structural Diversity Found to Modulate Thyroid Hormone Receptor in the Tox21 Chemical Library” (Environmental Health Perspectives, 2019)
Structures can show the parent of a compound that is named as a salt.

assay: in vitro; conditions: rat, gh3-tre-luc cells, AC50 (uM) modified / 1000

| SMILES | CC50 at 24 h |
| --- | --- |
| c1ccc(CSCc2ccccc2)cc1 [Benzyl sulfide] | > 90 µM |
| O=C1O[C@H]([C@H](O)CO)C(O)=C1O [Isoascorbic acid] | > 90 µM |
| COc1cc(C[C@H](C)N)c(OC)cc1Br [S-(+)-2,5-Dimethoxy-4-bromoamphetamine hydrochloride] | 61.8 µM |
| CCn1cc[n+](C)c1 [1-Ethyl-3-methylimidazolium thiocyanate] | > 90 µM |
| CC(C)CCOC(=O)c1ccccc1 [Isopentyl benzoate] | > 90 µM |
| CCCCCCCCCCCCO [1-Dodecanol] | > 90 µM |
| C/C=C(\C)C(=O)OC/C=C(\C)CCC=C(C)C [Geranyl tiglate] | > 90 µM |
| O=C1CCCN1 [2-Pyrrolidinone] | > 90 µM |
| CCCCN1C[C@H](O)[C@@H](O)[C@H](O)[C@H]1CO [Miglustat] | > 50 µM |
| Cc1cc(S(=O)(=O)O)ccc1N=Nc1c(O)ccc2ccccc12 [C.I. Acid Orange 8, monosodium salt] | 19.3 µM |
| c1ccc(Sc2ccccc2)cc1 [Diphenyl sulfide] | > 90 µM |
| CCCCc1ccccc1 [Butylbenzene] | > 90 µM |
| Cc1cccc(C)c1NC(=O)CN(CC(=O)O)CC(=O)O [Lidofenin] | > 50 µM |
| O=C(Cl)c1ccc(C(=O)Cl)cc1 [1,4-Benzenedicarbonyl dichloride] | > 90 µM |
| O=C(O)c1ccc(O)cc1 [4-Hydroxybenzoic acid] | > 90 µM |
| O=C=Nc1ccc(Cl)c(Cl)c1 [3,4-Dichlorophenyl isocyanate] | > 90 µM |
| CC(=O)OC(C)(C)C [tert-Butyl acetate] | > 90 µM |
| Cc1ccc(C)c([N+](=O)[O-])c1 [1,4-Dimethyl-2-nitrobenzene] | > 90 µM |
| c1ccc(CCNc2nc(-c3ccccc3)cs2)cc1 [Fanetizole] | > 50 µM |
| CC(C)c1ccc2ncccc2c1 [6-(1-Methylethyl)quinoline] | > 90 µM |
| NC[C@@H]1O[C@H](O[C@H]2[C@@H](O)[C@H](O[C@@H]3[C@@H](O)[C@H](N)C[C@H](N)[C@H]3O[C@H]3O[C@H](CN)[C@@H](O)[C@H](O)[C@H]3N)O[C@@H]2CO)[C@H](N)[C@@H](O)[C@@H]1O [Neomycin sulfate] | > 50 µM |
| CCCCCC/C=C/CCCCCCCC(=O)O [(E)-Hexadec-9-enoic acid] | > 90 µM |
| CS(=O)(=O)O [Methanesulfonic acid] | > 90 µM |
| CCC(C)c1nccnc1OC (stereo not shown) [2-sec-Butyl-3-methoxypyrazine] | > 90 µM |

| SMILES | CC50 at 24 h |
| --- | --- |
| Cc1ccc(Nc2ccc(O)c3c2C(=O)c2ccccc2C3=O)cc1 [D&C Violet 2] | > 90 µM |
| N[C@@H](Cc1ccc(O)c(O)c1)C(=O)O [L-Dopa] | > 50 µM |
| CC(=O)Oc1cccc(O)c1 [Resorcinol monoacetate] | > 50 µM |
| CC(C)C(=O)OC/C=C/c1ccccc1 [3-Phenylprop-2-en-1-yl 2-methylpropanoate] | > 90 µM |
| Nc1ccc(C(=O)Nc2ccccc2N)cc1 [Dianiline] | 14.1 µM |
| CC(=O)CC(=O)Nc1ccc(S(=O)(=O)O)cc1 [Potassium 4-[(3-oxobutanoyl)amino]benzenesulfonate] | > 90 µM |
| CC(=O)C1C(=O)C=C(C)OC1=O (stereo not shown) [Dehydroacetic acid] | > 90 µM |
| Cc1ccc(C(=O)O)cc1[N+](=O)[O-] [4-Methyl-3-nitrobenzoic acid] | > 90 µM |
| O=C1C=CC(=O)N1c1ccc(Cc2ccc(N3C(=O)C=CC3=O)cc2)cc1 [Bismaleimide] | 6.41 µM |
| CNC(=S)NC [N,N'-Dimethylthiourea] | > 90 µM |
| O=C(N/N=C/c1ccc([N+](=O)[O-])o1)c1cc([N+](=O)[O-])cc([N+](=O)[O-])c1O [Nifursol] | 32.5 µM |
| OC(Cn1cncn1)(Cn1cncn1)c1ccc(F)cc1F [Fluconazole] | > 90 µM |
| CC(C)(N)CO [2-Amino-2-methylpropan-1-ol] | > 90 µM |
| CCCCCCCC/C=C\CCCCCCCCCCCC(=O)O [(13Z)-Docos-13-enoic acid] | > 90 µM |
| CC1(S(=O)(=O)O)CC(=O)c2ccccc2C1=O (stereo not shown) [Menadione sodium bisulfite] | 12.2 µM |
| C[C@@]12C(=O)OC(=O)[C@]1(C)[C@H]1CC[C@@H]2O1 [Cantharidin] | 2.01 µM |
| CNc1ccccc1 [N-Methylaniline] | > 90 µM |
| CC(C)c1ccccc1O [2-Isopropylphenol] | > 90 µM |
| CCCCCCCCS(=O)(=O)O [Sodium 1-octanesulfonate] | > 90 µM |
| Cc1nn(-c2cc(NS(C)(=O)=O)c(Cl)cc2Cl)c(=O)n1C(F)F [Sulfentrazone] | > 90 µM |
| O=C1c2ccccc2C(=O)c2ccccc21 [Anthraquinone] | > 50 µM |
| O=C(Nc1ccc2c(c1)Cc1ccccc1-2)C(F)(F)F [N-(2-Fluorenyl)-2,2,2-trifluoroacetamide] | > 90 µM |
| COc1ccc(C)cc1N [2-Methoxy-5-methylaniline] | > 90 µM |
| O=C(NOCC1CC1)c1ccc(F)c(F)c1Nc1ccc(I)cc1Cl [C.I. 1040] | 21.1 µM |

| SMILES | CC50 at 24 h |
| --- | --- |
| Cc1cc(NS(=O)(=O)c2ccc(N)cc2)nc(C)n1 [Sulfisomidine] | > 50 µM |
| Cc1ccc(C=O)cc1C [3,4-Dimethylbenzaldehyde] | > 90 µM |
| CC1(C)[C@H](C=C(Cl)Cl)[C@H]1C(=O)O[C@H](C#N)c1cccc(Oc2ccccc2)c1 [Cypermethrin] | > 50 µM |
| Cc1cc(-c2cc(C)c(N)c(C)c2)cc(C)c1N [3,3',5,5'-Tetramethylbenzidine] | > 90 µM |
| COc1cccc(N)c1 [3-Methoxyaniline] | > 90 µM |
| N#CCCNCCC#N [3,3'-Iminobispropanenitrile] | > 100 µM |
| CN(C)[C@@H]1C(=O)C(C(=O)NCNCCCC[C@H](N)C(=O)O)=C(O)[C@@]2(O)C(=O)C3=C(O)c4c(O)cccc4[C@@](C)(O)[C@H]3C[C@@H]12 [Lymecycline] | > 20 µM |
| Cc1cc(C)c(N=Nc2c(O)c(S(=O)(=O)O)cc3cc(S(=O)(=O)O)ccc23)cc1C [Ponceau 3R] | > 6 µM |
| O=C1CCCCCO1 [Caprolactone] | > 90 µM |
| NC(=O)c1nc(-c2cccc(-c3cc(F)ccc3OCC(F)(F)C(F)(F)F)c2)n[nH]1 [MK-274] | 53.5 µM |
| C/C=C(\C)C=O [2-Methyl-2-butenal] | > 90 µM |
| COc1c2occc2cc2ccc(=O)oc12 [8-Methoxypsoralen] | > 50 µM |
| CCCCCCCCC=O [Nonanal] | > 90 µM |
| CCC1(c2ccccc2)C(=O)NC(=O)N(C)C1=O (stereo not shown) [Mephobarbital] | > 50 µM |
| O=C1C(Cl)C(CCl)CN1c1cccc(C(F)(F)F)c1 (stereo not shown) [Flurochloridone] | > 90 µM |
| CCCOC(OCCC)OCCC [Tripropyl orthoformate] | > 90 µM |
| COc1ccccc1OCCNCC(O)COc1cccc2[nH]c3ccccc3c12 (stereo not shown) [Carvedilol tartrate] | 24 µM |
| CCCCC(C=O)CC (stereo not shown) [2-Ethylhexanal] | > 90 µM |
| OC/C=C/c1ccccc1 [3-Phenyl-2-propen-1-ol] | > 100 µM |
| CC1=CCC(C(C)C)=CC1 [gamma-Terpinene] | > 90 µM |
| C=CCn1c(=O)n([C@@H]2O[C@H](CO)[C@@H](O)[C@H]2O)c2nc(N)[nH]c(=O)c21 [Loxoribine] | > 50 µM |
| COc1cc([S+](C)[O-])ccc1-c1nc2ncccc2[nH]1 (stereo not shown) [Sulmazole] | > 50 µM |
| CCCCCCCCCCCCCCCCOS(=O)(=O)O [Sodium hexyldecyl sulfate] | 50.6 µM |
| CC(/C=C/C=C(\C)C(=O)O[C@@H]1O[C@H](CO[C@@H]2O[C@H](CO)[C@@H](O)[C@H](O)[C@H]2O)[C@@H](O)[C@H](O)[C@H]1O)=C\C=C\C=C(C)\C=C\C=C(/C)C(=O)O[C@@H]1O[C@H](CO[C@@H]2O[C@H](CO)[C@@H](O)[C@H](O)[C@H]2O)[C@@H](O)[C@H](O)[C@H]1O [Crocin] | > 50 µM |

same assay, conditions: rat, gh3-tre-luc cells, AC50 (uM) modified / 1000, Tox21_110001=Tox21_111324; viability, 1 nM T3 present, 24 h

| SMILES | CC50 at 24 h |
| --- | --- |
| NCCc1cc(O)c(O)cc1O [Oxidopamine hydrochloride] | 45.2 µM |

same assay, conditions: rat, gh3-tre-luc cells, AC50 (uM) modified / 1000, Tox21_110001=Tox21_112370; viability, 1 nM T3 present, 24 h

| SMILES | CC50 at 24 h |
| --- | --- |
| OC[C@@H](O)[C@H]1O[C@@H]2O[C@@H](C(Cl)(Cl)Cl)O[C@@H]2[C@H]1O [beta-Chloralose] | > 50 µM |

same assay, conditions: rat, gh3-tre-luc cells, AC50 (uM) modified / 1000, Tox21_110001=Tox21_113078; viability, 1 nM T3 present, 24 h

| SMILES | CC50 at 24 h |
| --- | --- |
| CC(C)C[C@H]1C(=O)N2CCC[C@H]2[C@]2(O)O[C@](NC(=O)[C@@H]3C[C@@H]4c5cccc6[nH]cc(c56)C[C@H]4N(C)C3)(C(C)C)C(=O)N12 [Dihydroergocriptine] | 39.2 µM |

same assay, conditions: rat, gh3-tre-luc cells, AC50 (uM) modified / 1000, Tox21_110001=Tox21_113313; viability, 1 nM T3 present, 24 h

| SMILES | CC50 at 24 h |
| --- | --- |
| O=C(O)CCCCCCNC1c2ccccc2CCc2ccccc21 [Amineptine] | > 50 µM |

same assay, conditions: rat, gh3-tre-luc cells, AC50 (uM) modified / 1000, Tox21_110001=Tox21_200823; viability, 1 nM T3 present, 24 h

| SMILES | CC50 at 24 h |
| --- | --- |
| Clc1cccc2ccccc12 [1-Chloronaphthalene] | > 90 µM |

same assay, conditions: rat, gh3-tre-luc cells, AC50 (uM) modified / 1000, Tox21_110001=Tox21_202075; viability, 1 nM T3 present, 24 h

| SMILES | CC50 at 24 h |
| --- | --- |
| O=C(CCl)c1ccccc1 [2-Chloroacetophenone] | > 90 µM |

same assay, conditions: rat, gh3-tre-luc cells, AC50 (uM) modified / 1000, Tox21_110001=Tox21_202305; viability, 1 nM T3 present, 24 h

| SMILES | CC50 at 24 h |
| --- | --- |
| Cc1ccccc1O [o-Cresol] | > 90 µM |

same assay, conditions: rat, gh3-tre-luc cells, AC50 (uM) modified / 1000, Tox21_110001=Tox21_300045; viability, 1 nM T3 present, 24 h

| SMILES | CC50 at 24 h |
| --- | --- |
| O=C(CCl)c1ccccc1 [2-Chloroacetophenone] | 62.3 µM |

same assay, conditions: rat, gh3-tre-luc cells, AC50 (uM) modified / 1000, Tox21_110001=Tox21_300606; viability, 1 nM T3 present, 24 h

| SMILES | CC50 at 24 h |
| --- | --- |
| O=C(O)C(F)(F)C(F)(F)C(F)(F)C(F)(F)C(F)(F)C(F)(F)C(F)(F)C(F)(F)C(F)(F)C(F)(F)F [Perfluoroundecanoic acid] | > 90 µM |

same assay, conditions: rat, gh3-tre-luc cells, AC50 (uM) modified / 1000, Tox21_110001=Tox21_301206; viability, 1 nM T3 present, 24 h

| SMILES | CC50 at 24 h |
| --- | --- |
| COP(=S)(NC(C)C)Oc1ccc(C)cc1[N+](=O)[O-] (stereo not shown) [Amiprofos-methyl] | > 90 µM |
